Assay: xn = mol fraction of the nth substance listed

CC(O)CN (stereo not drawn) + O
viscosity [mPa·s]
Conditions	293.15 K	298.15 K	303.15 K	308.15 K	313.15 K	318.15 K	323.15 K
101 kPa, x1 = 0.01	–	–	–	–	–	0.7225	–
101 kPa, x1 = 0.06	–	–	–	–	–	1.155	–
101 kPa, x1 = 0.5995	–	–	–	–	12.85	–	–
101.3 kPa, x1 = 0.0126	1.228	1.03	0.894	0.781	0.682	–	0.573
101.3 kPa, x1 = 0.026	1.488	1.273	1.122	0.99	0.868	–	0.72
101.3 kPa, x1 = 0.0565	2.334	1.985	1.721	1.493	1.299	–	1.049

CCCC[N+]1=C2CCCCCN2CCC1.c1c[n-]cn1 + O
viscosity [mPa·s], 100 kPa
Conditions	x1 = 0.0298	x1 = 0.0697	x1 = 0.0991	x1 = 0.2001	x1 = 0.3002	x1 = 0.439	x1 = 0.5972	x1 = 0.7501	x1 = 0.89
293.15 K	4.316	12.27	19.53	55.65	97.57	133.7	136.6	127.6	117.4
298.15 K	3.347	9.898	15.3	39.88	66.69	88.91	91.45	86.9	80.42
303.15 K	2.838	8.133	12.48	29.5	47.22	61.57	63.37	60.13	57.19
308.15 K	2.449	6.778	9.929	22.51	34.56	44.11	45.74	43.8	41.93
313.15 K	2.138	5.738	8.244	17.58	26.15	32.54	33.55	32.34	31.79

CCCCn1cc[n+](C)c1.[Cl-] + O
101 kPa
Conditions	viscosity [mPa·s]
293.15 K, x2 = 0.4982	235.1
293.15 K, x2 = 0.6132	85.9
303.15 K, x2 = 0.5535	83.3
308.15 K, x2 = 0.4982	92.5

CC[N+](CC)(CC)CC.[I-] + O
viscosity [mPa·s], 101 kPa
Conditions	x1 = 0.0005	x1 = 0.0009	x1 = 0.0018	x1 = 0.0027	x1 = 0.0036
293.15 K	1.004	1.018	1.037	1.051	1.074
298.15 K	0.893	0.902	0.916	0.931	0.943
303.15 K	0.826	0.835	0.846	0.859	0.872
308.15 K	0.697	0.703	0.713	0.723	0.733

N[C@@H](CCC(=O)O)C(=O)O + O
viscosity [mPa·s], 101.3 kPa
Conditions	x1 = 0.000207	x1 = 0.00038	x1 = 0.00043	x1 = 0.000542	x1 = 0.000801	x1 = 0.000855	x1 = 0.0012
293.15 K	1.004	1.012	1.007	1.011	1.021	1.019	1.027
298.15 K	0.8955	0.9049	0.8994	0.9025	0.9086	0.9109	0.9194
303.15 K	0.8079	0.8164	0.8109	0.8148	0.8178	0.8217	0.8279
313.15 K	0.6741	0.6803	0.6764	0.6779	0.6818	0.6849	0.6903
323.15 K	0.5787	0.5857	0.581	0.5826	0.5849	0.5864	0.5895

O=P([O-])([O-])[O-].[K+].[K+].[K+] + O
viscosity [mPa·s], 101 kPa
Conditions	x1 = 0.0018	x1 = 0.0054	x1 = 0.0089	x1 = 0.012	x1 = 0.016
298.15 K	0.9999	1.068	1.197	1.397	1.648
303.15 K	0.8476	0.9587	1.107	1.268	1.492
308.15 K	0.7639	0.8485	0.9715	1.123	1.341

O=S(=O)(O)CCN1CCOCC1 + O
viscosity [mPa·s], 101.3 kPa
Conditions	x1 = 0.003662	x1 = 0.0073	x1 = 0.00959	x1 = 0.01075	x1 = 0.01417	x1 = 0.01767
298.15 K	0.918	0.98	1.006	1.035	1.101	1.153
308.15 K	0.743	0.792	0.814	0.836	0.893	0.932
318.15 K	0.616	0.657	0.676	0.693	0.737	0.772

O=[N+]([O-])[O-].O=[N+]([O-])[O-].[Ca+2] + O
viscosity [mPa·s], 100 kPa
Conditions	x1 = 0.00575	x1 = 0.006	x1 = 0.01	x1 = 0.01205	x1 = 0.0267	x1 = 0.03	x1 = 0.04	x1 = 0.04494	x1 = 0.06819	x1 = 0.07
298.15 K	0.963	0.964	1.052	1.051	1.384	1.328	1.955	1.954	3.256	3.257
323.15 K	0.599	0.599	0.66	0.66	0.852	0.844	1.207	1.204	1.928	1.931

Source: the CheMixHub viscosity set
